# Assay results: PubChem BioAssay AID1259407 (Chemical Carcinogenesis Research Information System (CCRIS), 2018)
# Active and inactive are the calls of the source. No rule for the calls is given here.
# System: CCRIS mutagenicity, Ames/micronucleus/aberration tests
# Experiment: CCRIS mutagenicity studies
# [1] = Test System: AMES SALMONELLA TYPHIMURIUM, Strain/Indicator: TA98, Metabolic Activation: RAT LIVER S-9, AROCLOR 1254, Method: STANDARD PLATE
# [2] = Test System: AMES SALMONELLA TYPHIMURIUM, Strain/Indicator: TA98, Metabolic Activation: RAT, LIVER, S-9, AROCLOR 1254, Method: STANDARD PLATE
# [3] = Test System: AMES SALMONELLA TYPHIMURIUM, Strain/Indicator: TA100, Metabolic Activation: RAT LIVER S-9, AROCLOR 1254, Method: STANDARD PLATE
# [4] = Test System: AMES SALMONELLA TYPHIMURIUM, Strain/Indicator: TA100, Metabolic Activation: RAT, LIVER, S-9, AROCLOR 1254, Method: STANDARD PLATE
# [5] = Test System: AMES SALMONELLA TYPHIMURIUM, Strain/Indicator: TA98, Metabolic Activation: NONE, Method: PREINCUBATION
# [6] = Test System: AMES SALMONELLA TYPHIMURIUM, Strain/Indicator: TA98, Metabolic Activation: NONE, Method: STANDARD PLATE
# [7] = Test System: AMES SALMONELLA TYPHIMURIUM, Strain/Indicator: TA100, Metabolic Activation: NONE, Method: PREINCUBATION
# [8] = Test System: AMES SALMONELLA TYPHIMURIUM, Strain/Indicator: TA100, Metabolic Activation: NONE, Method: STANDARD PLATE
smiles,measurement,setting,value
O=C1C[C@H](O)[C@@H]2c3c(ccc(O)c31)-c1ccc(O)c3c1[C@@]2(O)CCC3=O,mutagenic call,[1],active; positive
same,mutagenic call,[2],active; positive
same,mutagenic call,[3],inactive; negative
same,mutagenic call,[4],active; positive
same,mutagenic call,"Test System: AMES SALMONELLA TYPHIMURIUM, Strain/Indicator: TA1537, Metabolic Activation: NONE, Method: STANDARD PLATE",active; positive
same,mutagenic call,"Test System: AMES SALMONELLA TYPHIMURIUM, Strain/Indicator: TA1537, Metabolic Activation: RAT, LIVER, S-9, AROCLOR 1254, Method: STANDARD PLATE",active; positive
same,mutagenic call,"Test System: Ames Salmonella typhimurium, Strain/Indicator: TA97, Metabolic Activation: None, Method: Standard plate",inactive; negative. nitrosation increased mutagenicity
same,mutagenic call,"Test System: Ames Salmonella typhimurium, Strain/Indicator: TA97, Metabolic Activation: Rat, Liver, S-9, Aroclor 1254 (10%), Method: Standard plate",inactive; negative. nitrosation increased mutagenicity
same,mutagenic call,"Test System: Ames Salmonella typhimurium, Strain/Indicator: TA102, Metabolic Activation: None, Method: Standard plate",active; positive. nitrosation yielded mutagenic product
same,mutagenic call,"Test System: Ames Salmonella typhimurium, Strain/Indicator: TA102, Metabolic Activation: Rat, Liver, S-9, Aroclor 1254 (10%), Method: Standard plate",active; positive. nitrosation yielded mutagenic product
same,mutagenic call,"Test System: Ames Salmonella typhimurium, Strain/Indicator: TA104, Metabolic Activation: None, Method: Standard plate",inactive; negative. nitrosation increased mutagenicity
same,mutagenic call,"Test System: Ames Salmonella typhimurium, Strain/Indicator: TA104, Metabolic Activation: Rat, Liver, S-9, Aroclor 1254 (10%), Method: Standard plate",inactive; negative. nitrosation increased mutagenicity
same,mutagenic call,"Test System: Chinese hamster fibroblasts, Strain/Indicator: V79 (Hprt)/6-thioguanine, Metabolic Activation: None, Method: Standard plate",inactive; negative (positive in presence of nitrosating medium_
same,mutagenic call,"Test System: Rat hepatoma cells, Strain/Indicator: H4IIE (Hprt/6-thioguanine), Metabolic Activation: None, Method: Standard plate",inactive; negative (positive in presence of nitrosating medium)
O=CC(=O)c1ccccc1,mutagenic call,"Test System: AMES SALMONELLA TYPHIMURIUM, Strain/Indicator: TA98, Metabolic Activation: HAMSTER, LIVER, S-9, AROCLOR 1254, Method: STANDARD PLATE",active; positive
same,mutagenic call,[5],inactive; negative
same,mutagenic call,[6],active; positive
same,mutagenic call,[2],active; positive
same,mutagenic call,"Test System: AMES SALMONELLA TYPHIMURIUM, Strain/Indicator: TA98, Metabolic Activation: RAT, LIVER, S-9, PCB, Method: PREINCUBATION",inactive; negative
same,mutagenic call,"Test System: AMES SALMONELLA TYPHIMURIUM, Strain/Indicator: TA100, Metabolic Activation: HAMSTER, LIVER, S-9, AROCLOR 1254, Method: STANDARD PLATE",active; positive
same,mutagenic call,[7],active; positive
same,mutagenic call,[8],active; positive
same,mutagenic call,[4],active; positive
same,mutagenic call,"Test System: AMES SALMONELLA TYPHIMURIUM, Strain/Indicator: TA100, Metabolic Activation: RAT, LIVER, S-9, PCB, Method: PREINCUBATION",inactive; negative
same,mutagenic call,"Test System: MOUSE LYMPHOMA, Strain/Indicator: L5178Y (TK+/TK-), Metabolic Activation: NONE, Method: SUSPENSION/PLATE",active; positive
same,mutagenic call,"Test System: Mouse lymphoma, Strain/Indicator: L5178Y (tk+/tk-), Metabolic Activation: None, Method: Suspension/plate",active; positive
same,mutagenic call,"Test System: Mouse lymphoma, Strain/Indicator: L5178Y (tk+/tk-), Metabolic Activation: Rat, Liver, S-9, Aroclor 1254, Method: Suspension/plate",inactive; negative
COC1=CC(=O)c2c(ncc3c4c([nH]c23)CCCC4)C1=O,mutagenic call,"Test System: AMES SALMONELLA TYPHIMURIUM, Strain/Indicator: TA97A, Metabolic Activation: NONE, Method: STANDARD PLATE",active; positive
same,mutagenic call,"Test System: AMES SALMONELLA TYPHIMURIUM, Strain/Indicator: TA97A, Metabolic Activation: RAT LIVER S-9, AROCLOR 1254, Method: STANDARD PLATE",active; positive
same,mutagenic call,[6],active; positive
same,mutagenic call,[1],active; positive
same,mutagenic call,[8],active; positive
same,mutagenic call,[3],active; positive
same,mutagenic call,"Test System: AMES SALMONELLA TYPHIMURIUM, Strain/Indicator: TA102, Metabolic Activation: NONE, Method: STANDARD PLATE",inactive; negative
same,mutagenic call,"Test System: AMES SALMONELLA TYPHIMURIUM, Strain/Indicator: TA102, Metabolic Activation: RAT LIVER S-9, AROCLOR 1254, Method: STANDARD PLATE",inactive; negative
C=CC(C)C#N (centres undefined),mutagenic call,"Test System: AMES SALMONELLA TYPHIMURIUM, Strain/Indicator: TA97, Metabolic Activation: HAMSTER, LIVER, S-9, AROCLOR 1254 (5 OR 30%), Method: PREINCUBATION",inactive; negative
same,mutagenic call,"Test System: AMES SALMONELLA TYPHIMURIUM, Strain/Indicator: TA97, Metabolic Activation: HAMSTER, LIVER, S-9, AROCLOR 1254 (10%), Method: PREINCUBATION",inactive; negative
same,mutagenic call,"Test System: AMES SALMONELLA TYPHIMURIUM, Strain/Indicator: TA97, Metabolic Activation: NONE, Method: PREINCUBATION",inactive; negative
same,mutagenic call,"Test System: AMES SALMONELLA TYPHIMURIUM, Strain/Indicator: TA97, Metabolic Activation: RAT, LIVER, S-9, AROCLOR 1254 (10%), Method: PREINCUBATION",inactive; negative
same,mutagenic call,"Test System: AMES SALMONELLA TYPHIMURIUM, Strain/Indicator: TA97, Metabolic Activation: RAT, LIVER, S-9, AROCLOR 1254 (30%), Method: PREINCUBATION",inactive; negative
same,mutagenic call,"Test System: AMES SALMONELLA TYPHIMURIUM, Strain/Indicator: TA98, Metabolic Activation: HAMSTER, LIVER, S-9, AROCLOR 1254 (10%), Method: PREINCUBATION",inactive; negative
same,mutagenic call,"Test System: AMES SALMONELLA TYPHIMURIUM, Strain/Indicator: TA98, Metabolic Activation: HAMSTER, LIVER, S-9, AROCLOR 1254 (30%), Method: PREINCUBATION",inactive; negative
same,mutagenic call,[5],inactive; negative
same,mutagenic call,"Test System: AMES SALMONELLA TYPHIMURIUM, Strain/Indicator: TA98, Metabolic Activation: RAT, LIVER, S-9, AROCLOR 1254 (10%), Method: PREINCUBATION",inactive; negative
same,mutagenic call,"Test System: AMES SALMONELLA TYPHIMURIUM, Strain/Indicator: TA98, Metabolic Activation: RAT, LIVER, S-9, AROCLOR 1254 (30%), Method: PREINCUBATION",inactive; negative
same,mutagenic call,"Test System: AMES SALMONELLA TYPHIMURIUM, Strain/Indicator: TA100, Metabolic Activation: HAMSTER, LIVER, S-9, AROCLOR 1254 (10%), Method: PREINCUBATION",inactive; negative
same,mutagenic call,"Test System: AMES SALMONELLA TYPHIMURIUM, Strain/Indicator: TA100, Metabolic Activation: HAMSTER, LIVER, S-9, AROCLOR 1254 (30%), Method: PREINCUBATION",inactive; negative
same,mutagenic call,[7],inactive; negative
same,mutagenic call,"Test System: AMES SALMONELLA TYPHIMURIUM, Strain/Indicator: TA100, Metabolic Activation: RAT, LIVER, S-9, AROCLOR 1254 (10%), Method: PREINCUBATION",inactive; negative
same,mutagenic call,"Test System: AMES SALMONELLA TYPHIMURIUM, Strain/Indicator: TA100, Metabolic Activation: RAT, LIVER, S-9, AROCLOR 1254 (30%), Method: PREINCUBATION",inactive; negative
same,mutagenic call,"Test System: AMES SALMONELLA TYPHIMURIUM, Strain/Indicator: TA1535, Metabolic Activation: HAMSTER, LIVER, S-9, AROCLOR 1254 (10%), Method: PREINCUBATION",inactive; negative
same,mutagenic call,"Test System: AMES SALMONELLA TYPHIMURIUM, Strain/Indicator: TA1535, Metabolic Activation: HAMSTER, LIVER, S-9, AROCLOR 1254 (30%), Method: PREINCUBATION",inactive; negative
same,mutagenic call,"Test System: AMES SALMONELLA TYPHIMURIUM, Strain/Indicator: TA1535, Metabolic Activation: NONE, Method: PREINCUBATION",inactive; negative
same,mutagenic call,"Test System: AMES SALMONELLA TYPHIMURIUM, Strain/Indicator: TA1535, Metabolic Activation: RAT, LIVER, S-9, AROCLOR 1254 (10%), Method: PREINCUBATION",inactive; negative
same,mutagenic call,"Test System: AMES SALMONELLA TYPHIMURIUM, Strain/Indicator: TA1535, Metabolic Activation: RAT, LIVER, S-9, AROCLOR 1254 (30%), Method: PREINCUBATION",inactive; negative
same,mutagenic call,"Test System: AMES SALMONELLA TYPHIMURIUM, Strain/Indicator: TA1537, Metabolic Activation: HAMSTER, LIVER, S-9, AROCLOR 1254 (30%), Method: PREINCUBATION",inactive; negative
same,mutagenic call,"Test System: AMES SALMONELLA TYPHIMURIUM, Strain/Indicator: TA1537, Metabolic Activation: NONE, Method: PREINCUBATION",inactive; negative
same,mutagenic call,"Test System: AMES SALMONELLA TYPHIMURIUM, Strain/Indicator: TA1537, Metabolic Activation: RAT, LIVER, S-9, AROCLOR 1254 (30%), Method: PREINCUBATION",inactive; negative
Cc1c2ccccc2c(COS(=O)(=O)O)c2ccc3ccccc3c12,mutagenic call,[5],active; positive
